How the values were obtained:
[1] = test system: MCF-7 cell line (breast cancer); experiment: Cytotoxicity, standard MTT colorimetric assay, MCF-7; assay type: cell-based; conditions: read-out: IC50 MCF-7, MCF-7 breast cancer cells
[2] = test system: MCF10A cell line (normal breast epithelial cells); experiment: Cytotoxicity, standard MTT colorimetric assay, MCF10A; assay type: cell-based; conditions: read-out: IC50 MCF10A
20S proteasome = conditions: potency comparable to belactosins A and C; cited from earlier work

SMILES: CC[C@H](C)[C@H](NC(=O)[C@@H](NC(=O)C1OC(=O)C1C(C)C)C(C)C)C(=O)O (single isomer, unassigned; (-)) [(−)-1, cystargolide A]
- IC50 [1]: 58 ± 9.5 µM
- IC50 [2]: > 100 µM
- activity as 20S proteasome inhibitors (20S proteasome): exhibited activity as 20S proteasome inhibitors

SMILES: CC(C)C1C(=O)OC1C(=O)N[C@H](C(=O)N[C@H](C(=O)O)C(C)C)C(C)C (single isomer, unassigned; (-)) [(−)-2, cystargolide B]
- IC50 [1]: 84.7 ± 18.6 µM
- IC50 [2]: > 100 µM
- activity as 20S proteasome inhibitors (20S proteasome): exhibited activity as 20S proteasome inhibitors

Source: paper PMC4629797 (Organic & biomolecular chemistry, 2015)
